US20200299671A1, “IMMOBILIZED MULTI-ENZYMATIC HALOGENATION SYSTEM” (priority 2019, published 2020)

Assays:
[1] = biological target: T1, PltM (Pseudomonas protegens, UniProt Q4KCZ3); assay: Optimized in vitro PltM halogenation assay (PltM, SsuE, GDH), overnight overall yield by HPLC; format: biochemical; conditions: for % overall conversion (trial 1) / % overall conversion (trial 2): optimized chlorination reaction, sum of all chlorinated products; for % overall conversion (trial 1): first of two independent reactions; for % overall conversion (trial 2): second of two independent reactions; for conversion upon overnight reaction: optimized conditions
Procedure: To increase production of halogenated molecules and decrease the amount of NADPH required, the above in vitro assay was optimized by using an additional enzyme, glucose dehydrogenase (GDH). […] The overall yield of halogenation products was determined for reactions run overnight for several substrates (Table 8). Conversion of the substrate to halogenated products was monitored by HPLC at λ=275-320 nm, where the absorbance of molecules is not affected by halogenation, and quantified as fraction of reaction species (%).
(§1) The time course experiments were performed in duplicate. Compound 1 was unstable under these optimized conditions, and it was not tested. The in vitro analysis of K87A mutant was performed overnight in 100 μL reaction mixture by using the compound 11 as a substrate. Wild-type PltM was used as a positive control, and no enzyme reaction was used as a negative control. In all above reactions, the compounds were extracted with EtOAc (4×100 μL) and dried under gentle air flow.
(§2) The halogenation reaction products were analyzed by HPLC or LC-MS by injecting 10 μL of each sample. The compounds were separated by Reversed-phase HPLC at the flow rate of 0.2 mL/min by using the following program: eluent A=H2O; eluent B=MeCN; gradient=2% B for 5 min, increase to 100% B over a 30 min period, stay at 100% B for 9 min, decrease to 2% B over a 1 min period, and re-equilibrate the column at 2% B for 30 min.
(§3) For HPLC analysis, the molecules were observed by absorbance at λ=275 nm as described above. As necessary, the following mass spectrometer was operated in negative and positive modes with the following parameters: For negative mode, mass range, 80-600 m/z in profile mode; temperature, 550° C. and ion spray voltage floating, −4500 V, and for positive mode, mass range, 80-600 m/z in profile mode; temperature, 550° C. and ion spray voltage floating, 4500 V. The presence of each compound was analyzed by extracted ion chromatograph (XIC) with the expected mass ±0.05 Da for Assay 1 and Assay 2 and ±0.005 Da for Assay 3 (FIGS. 2A-C, 8-13, and 17-37; Tables 3-4 and 7).

[2] = biological target: T1, PltM; format: biochemical; conditions: optimized conditions; for preference for bromination versus iodination: time course
Procedure: To increase production of halogenated molecules and decrease the amount of NADPH required, the above in vitro assay was optimized by using an additional enzyme, glucose dehydrogenase (GDH). […] Conversion of the substrate to halogenated products was monitored by HPLC at λ=275-320 nm, where the absorbance of molecules is not affected by halogenation, and quantified as fraction of reaction species (%).
as §1, with “Compound 1 was unstable under these optimized conditions, and it was not tested.” left out
To determine the halogenation preference, the kinetic parameters were obtained by the global nonlinear regression analysis of all reaction species using DynaFit software for the following halogenation mechanism:
where E, S, P1, P2 are enzyme, substrate, mono- and dihalogenated product, respectively.

[3] = biological target: T1, PltM; assay: In vitro PltM halogenation assay with a single halide salt, substrate profile (Assay 1a-1d), LC-MS; format: biochemical; conditions: for iodination by PltM (products identified by LC-MS): NaI as halide source (Assay 1d); for chlorination by PltM (products identified by LC-MS): NaCl as halide source (Assay 1b)
Procedure: The halogenation assays were carried out similarly to a recently described procedure. For substrate profile determination (Assay 1), 100 μL reactions were carried out in 30 mM sodium phosphate pH 7.4. As a halide source, 200 mM of either NaF (Assay 1a), NaCl (Assay 1b), NaBr (Assay 1c), or NaI (Assay 1d) was used. To ensure that PltM is incapable of fluorinating, an additional 200 μL reaction with 300 mM NaF was run. A 200 μL reaction with 400 mM NaBr was also run to ensure no additional bromination reaction occurred. Each reaction also contained a specified substrate (0.5 mM), FAD (0.2 mM), NADPH (5 mM), PltM (5.5 μM), and SsuE (5.0 μM). The reactions were initiated by adding NADPH under N2. The reaction tubes were tightly closed to avoid contact with air. The reaction mixtures were incubated at 25° C. for 3 h prior to extraction with EtOAc (4×100 μL). The organic layer was dried by a gentle flow of air, and the residue was dissolved in MeOH to prepare 1-10 μg/mL samples for LC-MS analysis.
as §2, §3

[4] = substrate: Oc1ccc(Cl)c(O)c1; assay: purified protein, by the assay type; conditions: other: halogen Cl; labelled species converted to next chlorinated product (for 16: to Cl-16a); pH 7.4
[5] = substrate: Nc1cccc(O)c1; assay: purified protein, by the assay type; conditions: pH 7.4
[6] = substrate: OCc1cc(O)cc(O)c1Cl; assay: purified protein, by the assay type; format: biochemical; conditions: other: halogen Cl; labelled species converted to next chlorinated product (for 16: to Cl-16a); pH 7.4
[7] = substrate: Oc1cccc(O)c1; assay: purified protein, by the assay type; format: biochemical; conditions: pH 7.4
[8] = substrate: OCc1cc(O)cc(O)c1; assay: purified protein, by the assay type; format: biochemical; conditions: pH 7.4
[9] = other: halogen Br, 16/Br-16b (second mono-brominated product)
[10] = other: halogen Br, labelled species converted to next brominated product (for 16: to Br-16a)
[11] = other: halogen Cl, 16/Cl-16b (second mono-chlorinated product)
[12] = other: halogen Cl, labelled species converted to next chlorinated product (for 16: to Cl-16a)

Nc1cccc(O)c1 [Compound 16]
% overall conversion (trial 1) ([1]; overnight): 100, 100%
% overall conversion (trial 2) ([1]; overnight): 100, 100%
conversion upon overnight reaction [1]: 100%
dibromination by PltM [2]: dibrominated
preference for bromination versus iodination [2]: preference for bromination

Oc1cccc(O)c1 [Compound 3]
% overall conversion (trial 1) ([1]; overnight): 100, 100%
% overall conversion (trial 2) ([1]; overnight): 100, 100%
conversion upon overnight reaction [1]: 100%
dibromination by PltM [2]: dibrominated
preference for bromination versus iodination [2]: preference for bromination

CC(=O)c1c(O)cc(O)cc1O [Compound 15]
% overall conversion (trial 1) ([1]; overnight): 34%
% overall conversion (trial 2) ([1]; overnight): 7%

Nc1cccc(N)c1 [Compound 18]
% overall conversion (trial 1) ([1]; overnight): 100, 100%
% overall conversion (trial 2) ([1]; overnight): 100, 100%

N[C@@H](Cc1c[nH]c2ccccc12)C(=O)O [Compound 20, L-Trp]
halogenation by PltM (substrate profile) ([3]; tested for chlorination and iodination): not observed

CC(Cc1ccc(O)cc1)NCC(O)c1cc(O)cc(O)c1 (centres unmarked) [Compound 22, fenoterol, reference compound]
iodination by PltM (products identified by LC-MS) [3]: mono-iodinated

CC(C)(C)NCC(O)c1cc(O)cc(O)c1 (centres unmarked) [Compound 21, terbutaline, reference compound]
iodination by PltM (products identified by LC-MS) [3]: both mono and di

OCc1cc(O)cc(O)c1 [Compound 11]
% overall conversion (trial 1) ([1]; overnight): 100, 100%
% overall conversion (trial 2) ([1]; overnight): 100, 100%
conversion upon overnight reaction [1]: 100%
product with wild-type PltM ([1]; overnight, conditions of the K87A analysis (positive control)): yields diCl-11
preference for bromination versus iodination [2]: for iodination
bromination by PltM (products identified by LC-MS) ([3]; NaBr as halide source (Assay 1c)): Mono-bromination of 11 was observed, but not dibromination
fluorination by PltM (products identified by LC-MS) ([3]; NaF as halide source (Assay 1a)): not dibromination or fluorination

Cc1cc(O)cc(O)c1 [Compound 9]
% overall conversion (trial 1) ([1]; overnight): 97%
% overall conversion (trial 2) ([1]; overnight): 96%

catechin [Compound 24]
chlorination by PltM (products identified by LC-MS) [3]: mono-chlorinated
iodination by PltM (products identified by LC-MS) [3]: mono-iodinated

Oc1ccc(C=Cc2cc(O)cc(O)c2)cc1 [Compound 23, resveratrol]
% overall conversion (trial 1) ([1]; overnight): 24%
% overall conversion (trial 2) ([1]; overnight): 20%
chlorination by PltM (products identified by LC-MS) [3]: mono-chlorinated
iodination by PltM (products identified by LC-MS) [3]: mono-iodinated

B1: PltM (Pseudomonas protegens Pf-5) (protein)
chain: MNQYDVIIIGSGIAGALTGAVLAKSGLNVLILDSAQHPRFSVGEAATPESGFLLRLLSKRFDIPEIAYLSHPDKIIQHVGSSACGIKLGFSFAWHQENAPSSPDHLVAPPLKVPEAHLFRQDIDYFALMIALKHGAESRQNIKIESISLNDDGVEVALSNAAPVKAAFIIDAAAQGSPLSRQLGLRTTEGLATDTCSFFTHMLNVKSYEDALAPLSRTRSPIELFKSTLHHIFEEGWLWVIPFNNHPQGTNQLCSIGFQFNNAKYRPTEAPEIEFRKLLKKYPAIGEHFKDAVNAREWIYAPRINYRSVQNVGDRFCLLPQATGFIDPLFSRGLITTFESILRLAPKVLDAARSNRWQREQFIEVERHCLNAVATNDQLVSCSYEAFSDFHLWNVWHRVWLSGSNLGSAFLQKLLHDLEHSGDARQFDAALEAVRFPGCLSLDSPAYESLFRQSCQVMQQAREQARPVAETANALHELIKEHEAELLPLGYSRISNRFILKV
Km [4]: 0.11 ± 0.02 µM
kcat [4]: 0.00667 s⁻¹
kcat/Km [4]: 58300 M⁻¹ s⁻¹
Km [5, 9]: 151 ± 20 µM
kcat [5, 9]: 0.0367 s⁻¹
kcat/Km [5, 9]: 250 M⁻¹ s⁻¹
Km [5, 10]: 151 ± 20 µM
kcat [5, 10]: 0.00783 s⁻¹
kcat/Km [5, 10]: 51.7 M⁻¹ s⁻¹
Km [5, 11]: 1.1 ± 0.3 µM
kcat [5, 11]: 0.00367 s⁻¹
kcat/Km [5, 11]: 3170 M⁻¹ s⁻¹
Km [5, 12]: 1.1 ± 0.3 µM
kcat [5, 12]: 0.00583 s⁻¹
kcat/Km [5, 12]: 5170 M⁻¹ s⁻¹
Km [6]: 0.44 ± 0.02 µM
kcat [6]: 0.003 ± 0.000167 s⁻¹
kcat/Km [6]: 6830 ± 333 M⁻¹ s⁻¹
Km [7, 10]: 0.71 ± 0.2 µM
kcat [7, 10]: 0.0317 ± 0.00167 s⁻¹
kcat/Km [7, 10]: 45000 ± 10000 M⁻¹ s⁻¹
Km [7, 12]: (7.6 ± 1.3) × 10^−2 μM
kcat [7, 12]: 2.3 ± 0.1^a min^−1
kcat/Km [7, 12]: 30 ± 5 ^ min^−1μM^−1
Km [8, 10]: (1.1 ± 0.2) × 10^3 μM
kcat [8, 10]: 0.004 ± 0.000333 s⁻¹
kcat/Km [8, 10]: 3.67 ± 0.333 M⁻¹ s⁻¹
Km [8, 12]: 8.4 ± 0.4 µM
kcat [8, 12]: 0.0267 ± 0.00167 s⁻¹
kcat/Km [8, 12]: 3170 ± 167 M⁻¹ s⁻¹
